Reference: patent US20240041899A1, “SOLID PREPARATION” (ASKA Pharmaceutical Co., Ltd., priority 2020, published 2024)

System: rats having the urination disorder associated with diabetes
Assay: Test Example 4: urination disorder model associated with streptozocin-induced diabetes (tissue weights, blood glucose, cystometry, nomogram)
Format: in vivo
Settings: for Bladder weight / Blood glucose level / Kidney weight / Prostate weight, dorsolateral prostate / Prostate weight, ventral prostate / Prostate weight, whole / Seminal vesicle weight: 4 weeks; for Bladder weight / Blood glucose level / Kidney weight / Prostate weight, dorsolateral prostate / Prostate weight, ventral prostate / Prostate weight, whole / Seminal vesicle weight / Body weight: average ± SD; for Dorsolateral prostate atrophy rate / Seminal vesicle atrophy rate / Ventral prostate atrophy rate / Whole prostate atrophy rate: relative to solvent group; for Body weight: model with induced diabetes (STZ), male rats
Description: As described below, as a urination disorder model, a urination disorder model associated with diabetes was prepared to evaluate the urination disorder. This model has no benign prostatic hyperplasia and is a model of a urination disorder associated with neuropathy and smooth muscle contraction disorder.
The body weights of rats (male, Crl:CD(SD), 5-week-old; Charles River Laboratories Japan, Inc.) were measured. After the rats were fasted overnight, the blood was collected from the caudal vein to measure the fasting blood glucose. On the basis of the body weight and the fasting blood glucose level, the rats were grouped or divided into two (2) groups by randomized, multivariable block allocation. The day after the rats were grouped, a first group received intraperitoneal administration of a citrate buffer (pH 4.5) (10 mL/kg) having a concentration of 0.1 mmol/L, and a second group received intraperitoneal administration of streptozocin (STZ; Sigma-Aldrich) (50 mg/kg). Streptozocin (STZ) was administered in the form of a solution of streptozocin having a concentration of 5 mg/mL in the citrate buffer.
About one (1) week after streptozocin (STZ) was administered, the body weight and the fasting blood glucose were measured. In the streptozocin (STZ) administration group (the second group), individuals having a fasting blood glucose level of not less than 300 mg/dL were used as animals with induced diabetes. These animals with induced diabetes are a model having no abnormality of the prostate (having no benign prostatic hyperplasia). On the basis of the body weight and the fasting blood glucose level, the animals (models) with induced diabetes were grouped or divided into three (3) groups by randomized, multivariable block allocation.
To the three model groups with induced diabetes, a 0.5 v/v % Polysorbate 80 solution (0.5% P) (10 mL/kg), the compound A (3 mg/kg), and the compound A (10 mg/kg) were orally administered, respectively, wherein the administration schedule in all groups was a frequency of once a day, only on weekdays, over four (4) weeks. Moreover, to the above-mentioned first group, a 0.5 v/v % Polysorbate 80 solution (0.5% P) (10 mL/kg) was orally administered in the same administration schedule (normal group). On the last day of administration, a cannula was inserted into and secured to the dome of the bladder under isoflurane anesthesia, and cystometry (Cystometogram, CMG) was conducted in the order of under awake condition and under urethane anesthesia to measure the intravesical pressure, the voided volume, and the residual urine volume. After the completion of the measurement, the blood was collected under deep isoflurane anesthesia, and then the prostate (ventral prostate, dorsolateral prostate), the seminal vesicle, the bladder, and the kidney were extracted and were each weighed. Moreover, the blood glucose level in the collected blood was measured.
The test substances and the dosage in the test system (rats having the urination disorder associated with diabetes) are as follows. • Normal group: citrate buffer 10 mL/kg (intraperitoneal administration), 0.5% P 10 mL/kg (oral administration) (n=10) • Solvent group (control group): STZ 50 mg/kg (intraperitoneal administration), 0.5% P 10 mL/kg (oral administration) (n=10) • Group A3: STZ 50 mg/kg (intraperitoneal administration), Compound A 3 mg/kg (oral administration) (n=10) • Group A10: STZ 50 mg/kg (intraperitoneal administration), Compound A 10 mg/kg (oral administration) (n=9)
The resulting data of the intravesical pressure, the voided volume, and the residual urine volume were analyzed, and the bladder capacity (mL), the residual urine volume […], and the urination efficiency (%) were determined as urination parameters in each urination. With respect to these urination parameters, the average value of two measurements was calculated and was taken as a measured value of each individual. […]

[1] = STZ diabetes model, 3 mg/kg, vs solvent group
[2] = STZ diabetes model, 10 mg/kg, vs solvent group
[3] = STZ diabetes model, Group A3 and Group A10 (3 and 10 mg/kg)
[4] = STZ diabetes model, oral 3 mg/kg
[5] = STZ diabetes model, oral 10 mg/kg

In the case of `CC(=O)O[C@]1(C(C)=O)C[C@@H](O)[C@H]2[C@@H]3C=C(Cl)C4=CC(=O)OC[C@]4(C)[C@H]3CC[C@@]21C` [Compound A, 17α-acetoxy-6-chloro-15β-hydroxy-2-oxa-4,6-pregnadiene-3,20-dione], the “bladder capacity, cystometry (CMG) under awake condition” value [1] is reported as “significantly reduced”, the “residual urine volume, cystometry (CMG) under anesthesia” value [1] is reported as “significantly decreased” and the “residual urine volume, cystometry (CMG) under awake condition” value [1] is reported as “significantly reduced”. The “urination efficiency, cystometry (CMG) under awake condition” value [1] was “improved”, the “bladder capacity, cystometry (CMG) under awake condition” value [2] was “significantly reduced” and the “residual urine volume, cystometry (CMG) under anesthesia” value [2] was “significantly decreased”. For the same compound, the “residual urine volume, cystometry (CMG) under awake condition” value [2] was “significantly reduced”, the “bladder capacity, cystometry (CMG) under anesthesia” value (STZ diabetes model, 10 mg/kg, vs solvent group (P=0.0336, Williams's multiple comparison test)) was “reduced” and the “urination efficiency, cystometry (CMG) under awake condition” value (STZ diabetes model, 10 mg/kg, vs solvent group (P=0.0359, Williams's multiple comparison test)) was “significantly improved”. For the same compound, the “action on the body weight, the blood glucose level, or the bladder and kidney weights” value [3] was “no action or influence”, the “urination efficiency, cystometry (CMG) under anesthesia” value [3] was “improved” and the “bladder contraction force on urination by nomogram analysis” value (STZ diabetes model, Group A3 and Group A10 (3 and 10 mg/kg), in comparison with the solvent group) was “strong bladder contraction force”. For the same compound, the “prostate and seminal vesicle weights” value (STZ diabetes model, Group A3 and Group A10 (3 and 10 mg/kg), vs solvent group) was “significantly decreased”, the “therapeutic effect on diabetes” value (STZ diabetes model, blood glucose level of Group A3 and Group A10 relative to the solvent group) was “no therapeutic effect” and the Bladder weight [4] was 79.3 ± 17.5 mg/100 g body weight. The Blood glucose level [4] was 912.8 ± 177.3 mg/dL, the Kidney weight [4] was 1114.9 ± 189.2 mg/100 g body weight and the “Prostate weight, dorsolateral prostate” value [4] was 35.3 ± 7.8 mg/100 g body weight. The “Prostate weight, ventral prostate” value [4] was 62.2 ± 11.4 mg/100 g body weight, the “Prostate weight, whole” value [4] was 97.5 ± 17.7 mg/100 g body weight and the Seminal vesicle weight [4] was 44.3 ± 9.6 mg/100 g body weight. The “Dorsolateral prostate atrophy rate” value [4] was “(44.2%)”, the “Seminal vesicle atrophy rate” value [4] was “(41.8%)” and the “Ventral prostate atrophy rate” value [4] was “(43.0%)”. For the same compound, the “Whole prostate atrophy rate” value [4] was “(43.4%)”, the Bladder weight [5] was 72.9 ± 11.6 mg/100 g body weight and the Blood glucose level [5] was 846.7 ± 342.5 mg/dL. For the same compound, the Kidney weight [5] was 1171.0 ± 213.3 mg/100 g body weight, the “Prostate weight, dorsolateral prostate” value [5] was 28.8 ± 6.1 mg/100 g body weight and the “Prostate weight, ventral prostate” value [5] was 53.1 ± 13.5 mg/100 g body weight. The “Prostate weight, whole” value [5] was 81.9 ± 19.0 mg/100 g body weight, the Seminal vesicle weight [5] was 37.9 ± 6.4 mg/100 g body weight and the “Dorsolateral prostate atrophy rate” value [5] was “(54.5%)”. For the same compound, the “Seminal vesicle atrophy rate” value [5] was “(50.2%)”, the “Ventral prostate atrophy rate” value [5] was “(51.3%)” and the “Whole prostate atrophy rate” value [5] was “(52.5%)”. It also gave a Body weight (oral 3 mg/kg once a day on weekdays 4 weeks) of 327.5 ± 51.3 g and a Body weight (oral 10 mg/kg once a day on weekdays 4 weeks) of 356.4 ± 80.9 g.
